Data on 10 compounds can be found in ChEMBL document CHEMBL1201862, “PubChem BioAssay data set” (2004).

Common to all, as to experiment: NCI tumour cell line growth inhibition, 48 h
Assay [1] has as its system A498.
In assay [2] the test system is A549.
Assay [3] relates to CAKI-1.
The subject of assay [4] is COLO 205.
In assay [5] the test system is DU-145.
The subject of assay [6] is HCC 2998.
In assay [7] the test system is KM12.
Assay [8] concerns MCF7.
In assay [9] the test system is Malme-3M.
The test system of assay [10] is NCI-H522.
Assay [11] has as its system NCI/ADR-RES.
Assay [12] has as its system OVCAR-5.
For assay [13], the system named is OVCAR-8.
Assay [14] concerns RPMI-8226.
Assay [15] concerns RXF 393.
The subject of assay [16] is SF-295.
The test system of assay [17] is SN12C.
Assay [18] deals with UACC-257.
Assay [19] concerns UACC-62.
Assay [20] concerns UO-31.

The structures appear in SMILES notation.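 Test compounds were applied to cells in 96-well plates for 48 hours at 5 doses. The concentration for 50% growth inhibition is given as GI50.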 Active and inactive are the calls of the source. No stated cut-off is given here; in the data, active = GI50 up to about 1.1 µM and inactive = higher.

Regarding `O=C(O)CC(Cc1ccccc1)C(=O)O` (configuration not stated), the GI50 in [1], in assay [2], in assay [3], in assay [4], in assay [5] and in [6] was > 100 µM (inactive) each time. In addition, the GI50 in assay [7], in [8], in assay [9], in assay [10], in assay [11] and in assay [12] was > 100 µM (inactive) in each case. In addition, the GI50 in assay [13] is > 100 µM (inactive); in [14] it was > 100 µM (inactive); in assay [15], > 100 µM (inactive); in assay [16] it was > 100 µM (inactive); in assay [17], 37.2 µM (inactive); in assay [18] it was > 100 µM (inactive). The GI50 in [19] and in assay [20] was > 100 µM (inactive) in each case.
With `CC1=NN(C(=O)c2ccncc2)C(=O)C1`, the GI50 in [1], in assay [2], in assay [3], in [4], in assay [5] and in assay [6] was > 100 µM (inactive) in each case. Besides, the GI50 in assay [7], in assay [8], in [9], in assay [10], in assay [11] and in [12] was > 100 µM (inactive) each time. Further, the GI50 was > 100 µM (inactive) in assay [13]; > 100 µM (inactive) in [15]; > 100 µM (inactive) in assay [16]; 29.2 µM (inactive) in assay [17]; > 100 µM (inactive) in [18]; > 100 µM (inactive) in assay [19]. In addition, in assay [20], the GI50 was > 100 µM (inactive).
As for `O=C1C(c2cnc3ccccc3n2)=C(O)c2ccccc21`, the GI50 was > 100 µM (inactive) in [1]; > 81.8 µM (inactive) in assay [2]; > 24.5 µM (inactive) in [3]; 43.2 µM (inactive) in [4]; > 100 µM (inactive) in assay [5]; 71.8 µM (inactive) in [6]. In addition, the GI50 was 7.08 µM (inactive) in [7]; 10.3 µM (inactive) in assay [8]; > 100 µM (inactive) in assay [9]; > 72.9 µM (inactive) in assay [10]; > 100 µM (inactive) in assay [11]; > 70.1 µM (inactive) in [12]. Also, the GI50 in [13] is > 75.7 µM (inactive); in assay [14], > 61.1 µM (inactive); in assay [15], 9.71 µM (inactive); in assay [16], > 64 µM (inactive); in assay [17], > 77.3 µM (inactive); in [18] it was > 71 µM (inactive). Further, the GI50 in assay [19] and in assay [20] was > 100 µM (inactive) in each case.
As for `COc1ccc(C(=O)/C=C/c2ccc(OCC#N)cc2)cc1`, the GI50 in assay [1] was 30.6 µM (inactive); in [2] it was 28.5 µM (inactive); in assay [3], 19.5 µM (inactive); in [4] it was 21.7 µM (inactive); in [5], 30 µM (inactive); in [6], 17.3 µM (inactive). Moreover, the GI50 was 17.5 µM (inactive) in assay [7]; 15.8 µM (inactive) in assay [8]; 20.5 µM (inactive) in [9]; 18.1 µM (inactive) in assay [10]; 20.9 µM (inactive) in assay [11]; > 100 µM (inactive) in assay [12]. In addition, the GI50 is 34.5 µM (inactive) in [13]; 16.3 µM (inactive) in assay [15]; 41 µM (inactive) in [16]; 19.9 µM (inactive) in [17]; 38.9 µM (inactive) in [18]; > 10 µM (inactive) in assay [19]. Further, in assay [20], the GI50 is 16.6 µM (inactive).
As to `Cc1ccnc2nc(-c3cccc4ccccc34)cc(O)c12`, the GI50 was 0.00167 µM (active) in assay [1]; 0.019 µM (active) in [2]; 0.0121 µM (active) in [3]; 0.0177 µM (active) in assay [4]; 0.035 µM (active) in assay [5]; 0.0573 µM (active) in assay [6]. The GI50 in assay [7] was 0.0183 µM (active); in assay [8], 0.0304 µM (active); in assay [9], 0.000708 µM (active); in [10], 0.00106 µM (active); in assay [11], 0.00237 µM (active); in assay [12] it was 0.0516 µM (active). Also, the GI50 is 0.0203 µM (active) in [13]; 0.00682 µM (active) in assay [14]; 0.0879 µM (active) in assay [15]; 0.0132 µM (active) in [16]; 0.127 µM (active) in [17]; 23.1 µM (inactive) in [18]. For the same compound, the figures for the GI50 in [19] and in [20] were 0.00196 µM (active) and 0.0188 µM (active), respectively.
`COc1ccc(C2CCc3nc4nc(N)nc(N)c4cc3C2)cc1` (configuration not stated): the GI50 in assay [1] is 22.2 µM (inactive); in assay [2] it was 39.3 µM (inactive); in assay [3], 54.1 µM (inactive); in assay [4], 40.3 µM (inactive); in assay [5], 39.7 µM (inactive); in assay [6] it was 31.8 µM (inactive). The GI50 in [7] was 30.8 µM (inactive); in assay [8], 15.2 µM (inactive); in assay [9], 24.5 µM (inactive); in assay [10] it was 25.4 µM (inactive); in [11], 39.2 µM (inactive); in assay [12], > 100 µM (inactive). Further, the GI50 in assay [13] is 10.2 µM (inactive); in [14], 32.6 µM (inactive); in assay [15], 16.3 µM (inactive); in assay [16] it was 16.8 µM (inactive); in [17], 6.7 µM (inactive); in assay [18] it was > 100 µM (inactive). In addition, the GI50 in assay [19] was 31.5 µM (inactive).
Turning to `CC1=C(C(=O)NNC(=O)c2ccccc2)CC(C(=O)NNC(=O)c2ccccc2)=C(C)N1`, the GI50 in [1], in [2], in assay [3], in assay [4], in [5] and in [6] was > 100 µM (inactive) each time. For the same compound, the GI50 in assay [7], in [8], in assay [10], in assay [11], in [12] and in assay [13] was > 100 µM (inactive) throughout. Also, the GI50 in assay [14], in [15], in assay [16], in [17], in assay [18] and in assay [19] was > 100 µM (inactive) in each case. In addition, in assay [20], the GI50 was > 100 µM (inactive).
Consider `C1=Nc2sc3c(c2C2=NCCN12)CCCC3`, for which the GI50 in assay [1] was 20.6 µM (inactive); in assay [3], 17.4 µM (inactive); in assay [4] it was 23.3 µM (inactive); in [5] it was 16.3 µM (inactive); in assay [6], 11.8 µM (inactive); in assay [7], 17.2 µM (inactive). For the same compound, the GI50 is 18.3 µM (inactive) in [8]; 16.9 µM (inactive) in assay [9]; 15.9 µM (inactive) in assay [10]; 18.2 µM (inactive) in assay [11]; 18.2 µM (inactive) in assay [12]; 17.1 µM (inactive) in assay [13]. The GI50 in assay [14] is 20.8 µM (inactive); in assay [15], 25 µM (inactive); in assay [16], 21.5 µM (inactive); in assay [18] it was 16.3 µM (inactive); in [19], 15.4 µM (inactive); in [20] it was 16.3 µM (inactive).
For `Clc1ccc(Cc2nc3cc4ccccc4cc3[nH]2)cc1Cl`, the GI50 in [1] was 13.6 µM (inactive); in assay [2] it was 16.4 µM (inactive); in assay [3] it was 18.3 µM (inactive); in [4], 18.5 µM (inactive); in assay [5], 20.7 µM (inactive); in assay [6] it was 18.5 µM (inactive). In addition, the GI50 in assay [7] was 16.4 µM (inactive); in assay [8] it was 16.2 µM (inactive); in [9], 16 µM (inactive); in [10], 12.7 µM (inactive); in assay [11] it was 28.7 µM (inactive); in assay [12] it was 32.5 µM (inactive). Moreover, the GI50 in [13] is 20.1 µM (inactive); in assay [14], 31.3 µM (inactive); in assay [15], 16.4 µM (inactive); in assay [17], 24 µM (inactive); in assay [18], 18.1 µM (inactive); in [19], 14.2 µM (inactive). In assay [20], the GI50 was 14 µM (inactive).
In the case of `OC1(c2ccccc2)c2ccccc2N=C2NCCN21` (configuration not stated), the GI50 in [1] was 86.5 µM (inactive); in [2] it was > 100 µM (inactive); in assay [3] it was 45.4 µM (inactive); in assay [4] it was 32.9 µM (inactive); in [5] it was > 100 µM (inactive); in assay [6] it was 16.3 µM (inactive). The GI50 in [7] was > 100 µM (inactive); in assay [8] it was 63.1 µM (inactive); in assay [10] it was > 100 µM (inactive); in assay [11], > 100 µM (inactive); in [12], > 100 µM (inactive); in assay [13], > 100 µM (inactive). In addition, the GI50 was 11.1 µM (inactive) in assay [14]; 82.6 µM (inactive) in assay [15]; 57.5 µM (inactive) in assay [16]; 82.8 µM (inactive) in assay [17]; 31.1 µM (inactive) in assay [18]; 51.4 µM (inactive) in assay [19]. Further, the GI50 in assay [20] is 59.2 µM (inactive).
